These results are taken from ChEMBL document CHEMBL3608235, “Pyrroloaryls and pyrroloheteroaryls: Inhibitors of the HIV fusion/attachment, reverse transcriptase and integrase” (Bioorg Med Chem, 2015).

The nature of data set [1]: Selectivity index, ratio of CC50 for mock-infected human MT4 cells to EC50 for HIV1 infected in human MT4 cells. In kind it is toxicity, cell-based. As to conditions: MT4 cells (mock-infected and HIV1-infected), read-out: Ratio CC50/EC50.
Data set [2] is described as follows: Selectivity index, ratio of IC50 for human CEM-SS cells to EC50 for HIV1 infected in human CEM-SS cells. To be noted: CEM-SS cells (uninfected and HIV1-infected), read-out: Ratio IC50/EC50. In kind it is toxicity, cell-based.
Data set [3] is described as follows: Selectivity index, ratio of IC50 for human C8166 cells to EC50 for HIV1 3B infected in human C8166 cells. In kind it is toxicity, cell-based. As to conditions: C8166 cells (uninfected and HIV1 3B-infected), read-out: Ratio IC50/EC50.
A further data set has as its system C8166. Briefly: Cytotoxicity against human C8166 cells. To be noted: Homo sapiens, C8166. In kind it is cell-based.
Data set [4] deals with Human immunodeficiency virus 1. Briefly: Antiviral activity against HIV1 3B infected in human C8166 cells assessed as inhibition of virus replication. Type of data set: functional, organism-based. To be noted: Human immunodeficiency virus 1, 3B.
Data set [5] has as its system Human immunodeficiency virus. Briefly: Antiviral activity against HIV by syncytial plaque assay. Type of data set: functional, organism-based. To be noted: Human immunodeficiency virus 1.
Data set [6] has as its system Human immunodeficiency virus 1. Briefly: Antiviral activity against HIV1 by XTT assay. In kind it is functional, organism-based.
Data set [7] has as its system Human immunodeficiency virus 2. Briefly: Antiviral activity against HIV2 by XTT assay. Type of data set: functional, organism-based. (Tetrazolium assays rely on reduction of a dye to a coloured formazan, in cell work by metabolically active cells.)
In data set [8] the test system is Human immunodeficiency virus 1. The experiment in a line: Antiviral activity against CXCR4-tropic HIV1 LAI infected in human MT2 cells by monogram phenosense entry assay. In kind it is functional, organism-based. As to conditions: Human immunodeficiency virus 1, LAI.
Data set [9] concerns Human immunodeficiency virus 1. The experiment in a line: Antiviral activity against CXCR4-tropic HIV1 NL4-3 infected in human MT2 cells by monogram phenosense entry assay. Type of data set: functional, organism-based. To be noted: Human immunodeficiency virus 1, NL4-3, MT2.
Data set [10] deals with Human immunodeficiency virus 1. Briefly: Antiviral activity against CXCR4-tropic HIV1 MN infected in human MT2 cells by monogram phenosense entry assay. In kind it is functional, organism-based. To be noted: Human immunodeficiency virus 1, MN.
The test system of data set [11] is Human immunodeficiency virus 1. The experiment in a line: Antiviral activity against CXCR4-tropic HIV1 3B infected in human MT2 cells by monogram phenosense entry assay. In kind it is functional, organism-based. As to conditions: Human immunodeficiency virus 1, 3B.
For data set [12], the system named is Human immunodeficiency virus 1. Briefly: Antiviral activity against CCR5-tropic HIV1 JRFL infected in human PM1 cells by monogram phenosense entry assay. In kind it is functional, organism-based. As to conditions: Human immunodeficiency virus 1, JRFL.
The subject of data set [13] is Human immunodeficiency virus 1. Briefly: Antiviral activity against CCR5-tropic HIV1 SF162 infected in human PM1 cells by monogram phenosense entry assay. In kind it is functional, organism-based. As to conditions: Human immunodeficiency virus 1, SF162, PM1.
Data set [14] deals with Human immunodeficiency virus 1. Briefly: Antiviral activity against CCR5-tropic HIV1 BAL infected in human PM1 cells by monogram phenosense entry assay. In kind it is functional, organism-based. To be noted: Human immunodeficiency virus 1, BAL.

`Cc1ccnc2c1NC(=O)c1cccnc1N2C1CC1` [NEVIRAPINE]: the selectivity ratio is greater than 800 in data set [1], 525 in data set [2] and greater than 250 in data set [3].
With `CCC1(c2cccc(OC)c2)Oc2ccccc2-n2cccc2C1=O` (stereo unspecified), 7000 nM corresponded to half-maximal inhibition with C8166 (IC50). Besides, the EC50 (in general, the concentration at which the effect is half-maximal) in data set [4] amounted to 33 nM. Further, the selectivity ratio in data set [3] was determined as 212.
Consider `CN1N=C(N)c2cn([C@@H]3O[C@H](COP(=O)(O)O)[C@@H](O)[C@H]3O)c3ncnc1c23` [TRICIRIBINE PHOSPHATE], for which the IC50 (usually the point on the concentration scale where inhibition reaches its midpoint) in data set [5] was found to be 10 nM; in data set [6], 20 nM; in data set [7], 20 nM.
As for `COc1cnc(-n2cnc(C)n2)c2[nH]cc(C(=O)C(=O)N3CCN(C(=O)c4ccccc4)CC3)c12` [TEMSAVIR], the EC50 in data set [8] came out at 0.7 nM; in [9] it was 2.2 nM; in data set [10], 14.8 nM; in [11], 16.2 nM; in data set [12], 0.4 nM; in [13], 0.5 nM. Moreover, in [14], the midpoint of the response, the EC50, lay at 1.7 nM.
